Consider ten compounds from ChEMBL document CHEMBL5665443, “Enzyme Inhibitor Single Concentration assay results for EUbOPEN Chemogenomics Library” (2024).

Experiment [1] deals with T1, Endonuclease III-like protein 1 (Homo sapiens) (UniProt P78549).
T1 sequence (whole entry): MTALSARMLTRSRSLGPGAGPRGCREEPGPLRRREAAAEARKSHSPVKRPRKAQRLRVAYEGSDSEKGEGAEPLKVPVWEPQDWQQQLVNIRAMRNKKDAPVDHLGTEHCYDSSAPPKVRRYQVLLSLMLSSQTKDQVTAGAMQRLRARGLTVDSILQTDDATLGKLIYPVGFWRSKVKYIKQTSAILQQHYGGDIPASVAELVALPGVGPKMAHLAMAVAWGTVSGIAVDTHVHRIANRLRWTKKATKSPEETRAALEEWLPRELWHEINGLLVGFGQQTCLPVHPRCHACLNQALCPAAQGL
The settings on record: Hit No.
Description: Inhibition of NTHL1 by quantifying inhibition of NTHL1-mediated cleavage and dissociation of quenched duplex DNA oligonucleotides, measured as fluorescence at 594 nm.

The target in experiment [2] is Methyl-CpG-binding domain protein 4 (Homo sapiens) (UniProt O95243). As to conditions: Hit No.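 Note: MBD4 activity read as fluorescence at 594 nm from cleavage and release of a quenched duplex DNA oligonucleotide, with APE1 coupled to incise the strand and raise turnover.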
Chain of Methyl-CpG-binding domain protein 4 (Homo sapiens) (O95243 whole entry, the tested form may be a part): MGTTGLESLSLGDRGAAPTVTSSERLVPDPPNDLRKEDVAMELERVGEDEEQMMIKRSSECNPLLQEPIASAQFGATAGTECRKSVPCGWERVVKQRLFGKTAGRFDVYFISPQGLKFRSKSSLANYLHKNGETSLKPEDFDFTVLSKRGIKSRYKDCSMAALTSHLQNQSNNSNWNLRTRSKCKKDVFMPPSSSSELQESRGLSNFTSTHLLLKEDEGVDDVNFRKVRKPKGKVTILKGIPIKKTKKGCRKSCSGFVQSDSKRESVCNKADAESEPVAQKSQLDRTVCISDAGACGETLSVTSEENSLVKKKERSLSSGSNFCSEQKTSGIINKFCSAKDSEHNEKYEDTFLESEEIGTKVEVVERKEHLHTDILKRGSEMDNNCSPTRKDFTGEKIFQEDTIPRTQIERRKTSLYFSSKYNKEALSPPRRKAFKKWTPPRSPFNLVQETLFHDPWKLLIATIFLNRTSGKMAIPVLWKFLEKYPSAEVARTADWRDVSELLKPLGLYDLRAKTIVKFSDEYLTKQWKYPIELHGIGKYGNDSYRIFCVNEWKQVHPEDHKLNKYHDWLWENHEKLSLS
Description: Inhibition of MBD4 by quantifying inhibition of MBD4-mediated cleavage and dissociation of quenched duplex DNA oligonucleotides, measured as fluorescence at 594 nm. To generate a functional strand incision and increase turn-over this assay is coupled to APE1.
In experiment [3] the target is T2, Adenine DNA glycosylase (Homo sapiens) (UniProt Q9UIF7).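 Note: human MUTYH activity read as 594 nm fluorescence from cleavage and release of a quenched DNA duplex, coupled with APE1 for strand incision, lower signal meaning inhibition.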
T2 sequence (whole entry): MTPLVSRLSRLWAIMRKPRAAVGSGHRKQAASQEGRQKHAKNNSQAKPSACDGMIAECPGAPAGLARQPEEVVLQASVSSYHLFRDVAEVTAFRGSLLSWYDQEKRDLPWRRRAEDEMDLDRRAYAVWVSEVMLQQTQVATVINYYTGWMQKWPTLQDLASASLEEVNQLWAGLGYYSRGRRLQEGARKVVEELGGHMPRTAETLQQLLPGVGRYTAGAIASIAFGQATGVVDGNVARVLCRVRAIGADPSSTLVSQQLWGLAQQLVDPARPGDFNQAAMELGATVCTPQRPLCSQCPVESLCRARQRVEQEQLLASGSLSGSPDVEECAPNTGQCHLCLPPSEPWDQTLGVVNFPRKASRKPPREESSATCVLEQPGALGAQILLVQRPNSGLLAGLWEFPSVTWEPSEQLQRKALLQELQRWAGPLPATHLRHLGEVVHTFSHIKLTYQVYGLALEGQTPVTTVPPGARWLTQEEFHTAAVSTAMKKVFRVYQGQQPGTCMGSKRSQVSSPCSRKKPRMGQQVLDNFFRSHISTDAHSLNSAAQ
As to conditions: Hit No.
Description: Inhibition of MUTYH by quantifying inhibition of MUTYH-mediated cleavage and dissociation of quenched duplex DNA oligonucleotides, measured as fluorescence at 594 nm. To generate a functional strand incision and increase turn-over this assay is coupled to APE1.

For experiment [4], the target named is T3, Endonuclease 8-like 2 (Homo sapiens) (UniProt Q969S2).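 Note: fluorescence at 594 nm reports NEIL2 cutting and release of a quenched double-stranded DNA oligo substrate, reduced signal read as inhibition.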
T3 sequence (whole entry): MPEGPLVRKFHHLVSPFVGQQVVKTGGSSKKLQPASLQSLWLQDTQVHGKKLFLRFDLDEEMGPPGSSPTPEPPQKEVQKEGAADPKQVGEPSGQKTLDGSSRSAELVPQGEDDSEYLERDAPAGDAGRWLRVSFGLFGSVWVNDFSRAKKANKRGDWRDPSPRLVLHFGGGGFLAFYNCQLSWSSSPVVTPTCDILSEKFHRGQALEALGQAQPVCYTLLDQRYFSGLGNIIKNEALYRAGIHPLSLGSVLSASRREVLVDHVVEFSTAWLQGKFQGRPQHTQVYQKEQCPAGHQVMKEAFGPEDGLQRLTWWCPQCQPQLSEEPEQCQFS
As to conditions: Hit No.
Description: Inhibition of NEIL2 by quantifying inhibition of NEIL2-mediated cleavage and dissociation of quenched duplex DNA oligonucleotides, measured as fluorescence at 594 nm.

In experiment [5] the target is G/T mismatch-specific thymine DNA glycosylase (Homo sapiens) (UniProt Q13569). The settings on record: Hit No.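 Note: human TDG cleavage of quenched duplex DNA oligonucleotides coupled to APE1, strand release read as fluorescence at 594 nm, inhibition of TDG activity.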
Chain of G/T mismatch-specific thymine DNA glycosylase (Homo sapiens) (Q13569 whole entry): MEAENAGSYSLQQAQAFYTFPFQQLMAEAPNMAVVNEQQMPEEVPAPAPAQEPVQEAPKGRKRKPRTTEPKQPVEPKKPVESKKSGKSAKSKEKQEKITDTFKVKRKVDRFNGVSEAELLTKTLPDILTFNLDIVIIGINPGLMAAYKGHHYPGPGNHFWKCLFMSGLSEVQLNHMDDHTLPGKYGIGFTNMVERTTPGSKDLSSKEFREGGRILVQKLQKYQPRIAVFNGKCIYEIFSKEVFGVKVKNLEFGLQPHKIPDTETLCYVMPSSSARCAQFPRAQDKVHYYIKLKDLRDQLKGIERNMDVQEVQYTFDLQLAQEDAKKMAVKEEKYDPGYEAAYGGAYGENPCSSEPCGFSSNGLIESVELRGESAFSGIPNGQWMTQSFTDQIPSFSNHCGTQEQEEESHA
Description: Inhibition of TDG by quantifying inhibition of TDG-mediated cleavage and dissociation of quenched duplex DNA oligonucleotides, measured as fluorescence at 594 nm. To generate a functional strand incision and increase turn-over this assay is coupled to APE1.
Experiment [6] concerns the target T4, Single-strand selective monofunctional uracil DNA glycosylase (Homo sapiens) (UniProt Q53HV7).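 Note: enzymatic SMUG1 assay coupled with APE1, reading fluorescence at 594 nm released when a quenched double-stranded DNA oligonucleotide substrate is cleaved and separated.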
T4 sequence (whole entry): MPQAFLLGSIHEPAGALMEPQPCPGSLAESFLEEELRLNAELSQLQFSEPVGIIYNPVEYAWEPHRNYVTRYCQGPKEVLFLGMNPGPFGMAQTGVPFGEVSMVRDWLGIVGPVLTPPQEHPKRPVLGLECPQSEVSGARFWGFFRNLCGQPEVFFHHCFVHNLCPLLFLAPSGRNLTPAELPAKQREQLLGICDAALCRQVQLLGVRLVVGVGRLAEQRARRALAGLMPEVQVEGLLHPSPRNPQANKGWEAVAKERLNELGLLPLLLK
The settings on record: Hit No.
Description: Inhibition of SMUG1 by quantifying inhibition of SMUG1-mediated cleavage and dissociation of quenched duplex DNA oligonucleotides, measured as fluorescence at 594 nm. To generate a functional strand incision and increase turn-over this assay is coupled to APE1.

For experiment [7], the target named is Endonuclease 8-like 1 (Homo sapiens) (UniProt Q96FI4). As to conditions: Hit No.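 Note: fluorescence at 594 nm from quenched duplex DNA oligonucleotides released by NEIL1 cleavage and strand separation, reported as reduction of this enzyme activity.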
Chain of Endonuclease 8-like 1 (Homo sapiens) (Q96FI4 whole entry): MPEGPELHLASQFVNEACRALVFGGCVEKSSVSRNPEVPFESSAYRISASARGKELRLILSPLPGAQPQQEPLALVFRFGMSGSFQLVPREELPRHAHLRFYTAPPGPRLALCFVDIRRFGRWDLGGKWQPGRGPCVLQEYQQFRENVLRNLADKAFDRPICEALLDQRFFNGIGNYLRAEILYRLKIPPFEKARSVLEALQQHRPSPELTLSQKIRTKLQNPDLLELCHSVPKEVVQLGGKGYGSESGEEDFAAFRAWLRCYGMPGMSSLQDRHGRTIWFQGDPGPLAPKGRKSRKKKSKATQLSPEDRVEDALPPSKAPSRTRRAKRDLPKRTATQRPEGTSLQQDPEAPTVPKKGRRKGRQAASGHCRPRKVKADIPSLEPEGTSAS
Description: Inhibition of NEIL1 by quantifying inhibition of NEIL1-mediated cleavage and dissociation of quenched duplex DNA oligonucleotides, measured as fluorescence at 594 nm.
The target in experiment [8] is Uracil-DNA glycosylase (Homo sapiens) (UniProt P13051). As to conditions: Hit No.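 Note: UNG excision on a quenched double-stranded DNA oligo probe, with APE1 added for strand incision and turnover, read as fluorescence at 594 nm as strands separate.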
Chain of Uracil-DNA glycosylase (Homo sapiens) (P13051 whole entry): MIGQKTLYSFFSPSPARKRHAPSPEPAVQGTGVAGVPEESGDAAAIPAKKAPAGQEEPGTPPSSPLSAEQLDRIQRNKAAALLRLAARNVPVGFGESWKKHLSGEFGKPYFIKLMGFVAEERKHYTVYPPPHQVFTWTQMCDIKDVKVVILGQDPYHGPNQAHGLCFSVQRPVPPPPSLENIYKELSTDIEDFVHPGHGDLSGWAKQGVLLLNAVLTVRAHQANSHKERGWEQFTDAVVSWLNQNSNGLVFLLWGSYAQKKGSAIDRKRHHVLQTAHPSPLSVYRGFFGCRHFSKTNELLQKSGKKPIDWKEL
Description: Inhibition of UNG by quantifying inhibition of UNG-mediated cleavage and dissociation of quenched duplex DNA oligonucleotides, measured as fluorescence at 594 nm. To generate a functional strand incision and increase turn-over this assay is coupled to APE1.
For experiment [9], the target named is N-glycosylase/DNA lyase (Homo sapiens) (UniProt O15527). As to conditions: Compound Concentration 10.0 uM, Hit No.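 Note: OGG1 cleavage of a quenched duplex DNA oligonucleotide, coupled to APE1 for strand incision, read as fluorescence at 594 nm.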
Chain of N-glycosylase/DNA lyase (Homo sapiens) (O15527 whole entry): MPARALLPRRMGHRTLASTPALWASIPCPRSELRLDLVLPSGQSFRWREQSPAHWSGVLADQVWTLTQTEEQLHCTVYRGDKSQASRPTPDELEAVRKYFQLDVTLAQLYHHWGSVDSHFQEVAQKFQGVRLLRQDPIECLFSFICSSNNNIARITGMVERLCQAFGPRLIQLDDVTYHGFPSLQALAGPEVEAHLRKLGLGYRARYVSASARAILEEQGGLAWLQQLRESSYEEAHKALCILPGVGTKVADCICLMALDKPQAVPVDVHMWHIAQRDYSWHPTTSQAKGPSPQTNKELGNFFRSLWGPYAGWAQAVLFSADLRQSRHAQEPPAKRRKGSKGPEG
Description: Inhibition of OGG1 by quantifying inhibition of OGG1-mediated cleavage and dissociation of quenched duplex DNA oligonucleotides, measured as fluorescence at 594 nm. To generate a functional strand incision and increase turn-over this assay is coupled to APE1.

A word on the inhibition: it is the change of the read-out against control, counted positive when it falls. For the compound `N[C@@]1(C(=O)O)CO[C@H]2[C@H](C(=O)O)[C@H]21`, the inhibition is 24.5% in experiment [1] (Compound Concentration 10.0 uM); 10.3% in [2] (Compound Concentration 10.0 uM); 10.7% in [3] (Compound Concentration 10.0 uM); -7.74% in experiment [4] (Compound Concentration 10.0 uM); 9.39% in experiment [5] (Compound Concentration 10.0 uM); 2.42% in experiment [6] (Compound Concentration 10.0 uM). Also, the inhibition in experiment [7] (Compound Concentration 10.0 uM) is -2.51%; in experiment [8] (Compound Concentration 10.0 uM), -8.59%.

Regarding `CC(C)(C)c1cc(NC(=O)Nc2ccc(-c3cn4c(n3)sc3cc(OCCN5CCOCC5)ccc34)cc2)no1`, the inhibition in experiment [1] (Compound Concentration 1.0 uM) is -3.4%; in experiment [2] (Compound Concentration 1.0 uM), 0.784%; in experiment [3] (Compound Concentration 1.0 uM) it was 11.2%; in experiment [4] (Compound Concentration 1.0 uM) it was 1.85%; in experiment [5] (Compound Concentration 1.0 uM) it was 37.3%; in experiment [6] (Compound Concentration 1.0 uM), 19.8%. The inhibition was determined as 5.55% in experiment [7] (Compound Concentration 1.0 uM) and 1.47% in [8] (Compound Concentration 1.0 uM).

On to `Cc1ccccc1N1CCN(CCc2nnc3n2CCCC3)CC1`, for which the inhibition in [1] (Compound Concentration 10.0 uM) is -6.14%; in experiment [2] (Compound Concentration 10.0 uM), -9.49%; in experiment [3] (Compound Concentration 10.0 uM), 7.44%; in experiment [4] (Compound Concentration 10.0 uM), -1.98%; in [5] (Compound Concentration 10.0 uM) it was 4.82%; in [6] (Compound Concentration 10.0 uM), -1.58%. Moreover, the inhibition in experiment [7] (Compound Concentration 10.0 uM) is 0.834%.

With `Cc1c[nH]c2nccc(Oc3c(F)cc(Nc4cc(Cl)nc(N)n4)cc3F)c12`, the inhibition in [1] (Compound Concentration 1.0 uM) is -0.432%; in experiment [2] (Compound Concentration 1.0 uM), 43.9%; in experiment [3] (Compound Concentration 1.0 uM) it was 11.7%; in experiment [4] (Compound Concentration 1.0 uM), 3.69%; in experiment [5] (Compound Concentration 1.0 uM) it was 54.4%; in [6] (Compound Concentration 1.0 uM), 20.7%. Besides, in [8] (Compound Concentration 1.0 uM), the inhibition was found to be 4.99%.

For the compound `C[C@@H](Oc1cc(-n2cnc3ccc(CN4CCN(C)CC4)cc32)sc1C(N)=O)c1ccccc1C(F)(F)F`, the inhibition is -6.19% in experiment [1] (Compound Concentration 1.0 uM); 15.4% in experiment [2] (Compound Concentration 1.0 uM); 6.26% in experiment [3] (Compound Concentration 1.0 uM); 50% in experiment [5] (Compound Concentration 1.0 uM); 26.8% in experiment [6] (Compound Concentration 1.0 uM); -0.655% in experiment [7] (Compound Concentration 1.0 uM). Moreover, in experiment [8] (Compound Concentration 1.0 uM), the inhibition was found to be 5.21%.

With `COc1ccccc1S(=O)(=O)Nc1ccc(C)cc1Oc1ccc2c(N)nccc2c1`, the inhibition in experiment [1] (Compound Concentration 10.0 uM) came out at 17.1%; in [2] (Compound Concentration 10.0 uM), 10.2%; in experiment [3] (Compound Concentration 10.0 uM) it was 3.09%; in [4] (Compound Concentration 10.0 uM), 7.55%; in experiment [5] (Compound Concentration 10.0 uM) it was 9.87%; in experiment [7] (Compound Concentration 10.0 uM), 11%. Moreover, the figures for the inhibition in experiment [9] and in [8] (Compound Concentration 10.0 uM) were -5.28% and -1.95%, respectively.

Regarding `Cc1nc(N2CC[C@@H](O)C2)ncc1-c1cc(C(F)(F)F)cc2[nH]ncc12`, the inhibition in experiment [1] (Compound Concentration 10.0 uM) is -5.89%; in experiment [2] (Compound Concentration 10.0 uM), 58.5%; in experiment [3] (Compound Concentration 10.0 uM), -2.45%; in [5] (Compound Concentration 10.0 uM), 48%; in experiment [6] (Compound Concentration 10.0 uM), 10.3%; in experiment [8] (Compound Concentration 10.0 uM), -1.48%.

Turning to `O=C1c2cccc3c2[C@H](CCC3)CN1[C@@H]1CN2CCC1CC2`, the inhibition in experiment [1] (Compound Concentration 10.0 uM) is 3.04%; in [2] (Compound Concentration 10.0 uM), 0.552%; in experiment [3] (Compound Concentration 10.0 uM), -5.22%; in experiment [5] (Compound Concentration 10.0 uM), 0.841%; in experiment [6] (Compound Concentration 10.0 uM), -4.7%; in experiment [7] (Compound Concentration 10.0 uM), -2.96%. Further, in experiment [8] (Compound Concentration 10.0 uM), the inhibition is -7.93%.

As to `Cc1cc(NC(=O)c2cccc(S(F)(F)(F)(F)F)c2)cc(-n2ccn3nc(-c4cccnc4)cc23)c1`, the inhibition in experiment [1] (Compound Concentration 1.0 uM) was -2%; in [1] (Compound Concentration 10.0 uM), 7.92%; in [2] (Compound Concentration 10.0 uM), 4.59%; in [3] (Compound Concentration 1.0 uM), 16%; in [4] (Compound Concentration 10.0 uM), -7.89%; in experiment [5] (Compound Concentration 1.0 uM) it was 54.6%. Moreover, the inhibition in [5] (Compound Concentration 10.0 uM) was found to be 17.7%; in experiment [6] (Compound Concentration 1.0 uM), 19.3%; in experiment [6] (Compound Concentration 10.0 uM) it was 3.64%; in experiment [8] (Compound Concentration 1.0 uM), 1.8%; in experiment [8] (Compound Concentration 10.0 uM), 0.948%.

Consider `COc1cc(-c2cn([C@H]3CCc4ccccc4N(CC(F)(F)F)C3=O)nn2)ccc1-n1ccc(C)n1`, for which the inhibition in experiment [1] (Compound Concentration 10.0 uM) was -9.83%; in experiment [2] (Compound Concentration 10.0 uM), -5.88%; in [3] (Compound Concentration 10.0 uM), -8.57%; in [4] (Compound Concentration 10.0 uM) it was 12.5%; in [5] (Compound Concentration 10.0 uM), 24.5%; in experiment [6] (Compound Concentration 10.0 uM), 8.81%. The inhibition in experiment [8] (Compound Concentration 10.0 uM) is 8.95%.
